Assay results taken from PubChem BioAssay (NCI).
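Dose response: 5 concentrations. Exposure: 48 h. Format: 96-well plates. Endpoint: linear interpolation; highest concentration if not reached. At the GI50, growth is halved. TGI: concentration producing complete growth inhibition.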

Assays:
Assay in all cases: NCI tumour cell line growth inhibition, 48 h
786-0 renal = test system: 786-0 renal
A498 renal = test system: A498 renal
A549 NSCLC = test system: A549 NSCLC
ACHN renal = test system: ACHN renal
BT-549 breast = test system: BT-549 breast
CAKI-1 renal = test system: CAKI-1 renal
CCRF-CEM leukemia = test system: CCRF-CEM leukemia
COLO 205 colon = test system: COLO 205 colon
DU-145 prostate = test system: DU-145 prostate
EKVX NSCLC = test system: EKVX NSCLC
HCC-2998 colon = test system: HCC-2998 colon
HCT-116 colon = test system: HCT-116 colon
HCT-15 colon = test system: HCT-15 colon
HL-60(TB) leukemia = test system: HL-60(TB) leukemia
HOP-62 NSCLC = test system: HOP-62 NSCLC
HOP-92 NSCLC = test system: HOP-92 NSCLC
HS 578T breast = test system: HS 578T breast
HT29 colon = test system: HT29 colon
IGROV1 ovarian = test system: IGROV1 ovarian
K-562 leukemia = test system: K-562 leukemia
KM12 colon = test system: KM12 colon
LOX IMVI melanoma = test system: LOX IMVI melanoma
M14 melanoma = test system: M14 melanoma
MALME-3M melanoma = test system: MALME-3M melanoma
MCF7 breast = test system: MCF7 breast
MDA-MB-231 breast = test system: MDA-MB-231 breast
MDA-MB-435 = test system: MDA-MB-435
MOLT-4 leukemia = test system: MOLT-4 leukemia
NCI-H226 lung = test system: NCI-H226 lung
NCI-H23 lung = test system: NCI-H23 lung
NCI-H460 lung = test system: NCI-H460 lung
NCI-H522 lung = test system: NCI-H522 lung
NCI/ADR-RES ovarian = test system: NCI/ADR-RES ovarian
OVCAR-3 ovarian = test system: OVCAR-3 ovarian
OVCAR-4 ovarian = test system: OVCAR-4 ovarian
OVCAR-5 ovarian = test system: OVCAR-5 ovarian
OVCAR-8 ovarian = test system: OVCAR-8 ovarian
PC-3 prostate = test system: PC-3 prostate
RPMI-8226 leukemia = test system: RPMI-8226 leukemia
RXF 393 renal = test system: RXF 393 renal
SF-268 CNS = test system: SF-268 CNS
SF-295 CNS = test system: SF-295 CNS
SF-539 CNS = test system: SF-539 CNS
SK-MEL-2 melanoma = test system: SK-MEL-2 melanoma
SK-MEL-28 melanoma = test system: SK-MEL-28 melanoma
SK-MEL-5 melanoma = test system: SK-MEL-5 melanoma
SK-OV-3 ovarian = test system: SK-OV-3 ovarian
SN12C renal = test system: SN12C renal
SNB-19 CNS = test system: SNB-19 CNS
SNB-75 CNS = test system: SNB-75 CNS
SW-620 colon = test system: SW-620 colon
T-47D breast = test system: T-47D breast
TK-10 renal = test system: TK-10 renal
U251 CNS = test system: U251 CNS
UACC-257 melanoma = test system: UACC-257 melanoma
UACC-62 melanoma = test system: UACC-62 melanoma
UO-31 renal = test system: UO-31 renal
SR leukemia = test system: SR leukemia

With `CCn1c2ccccc2c2cc(/C=C(/C#N)C(N)=S)ccc21` the GI50 (786-0 renal) was 16.1 µM, the TGI (786-0 renal) was 39.4 µM and the GI50 (A498 renal) was 26 nM. For the same molecule, the TGI (A498 renal) was 115 nM, the GI50 (A549 NSCLC) was 17.5 µM and the TGI (A549 NSCLC) was > 87.4 µM. It also gave a GI50 (ACHN renal) of 19.6 µM, a TGI (ACHN renal) of 64 µM and a GI50 (BT-549 breast) of 18.6 µM. For the same molecule, the TGI (BT-549 breast) was 36.6 µM, the GI50 (CAKI-1 renal) was 1120 nM and the TGI (CAKI-1 renal) was > 35.4 µM. For the same molecule, the GI50 (CCRF-CEM leukemia) was 23.4 µM, the TGI (CCRF-CEM leukemia) was > 100 µM and the GI50 (COLO 205 colon) was 13.2 µM. For the same molecule, the TGI (COLO 205 colon) was > 45.7 µM, the GI50 (DU-145 prostate) was 16.1 µM and the TGI (DU-145 prostate) was 63.6 µM. For the same molecule, the GI50 (EKVX NSCLC) was 17.7 µM, the TGI (EKVX NSCLC) was > 58.4 µM and the GI50 (HCC-2998 colon) was 2880 nM. For the same molecule, the TGI (HCC-2998 colon) was 9 µM, the GI50 (HCT-116 colon) was 5.79 µM and the TGI (HCT-116 colon) was 20.9 µM. For the same molecule, the GI50 (HCT-15 colon) was 18.7 µM, the TGI (HCT-15 colon) was 51.6 µM and the GI50 (HL-60(TB) leukemia) was 74.4 µM. The TGI (HL-60(TB) leukemia) was > 100 µM, the GI50 (HOP-62 NSCLC) was 1210 nM and the TGI (HOP-62 NSCLC) was 17.7 µM. The GI50 (HOP-92 NSCLC) was 14.6 µM, the TGI (HOP-92 NSCLC) was 46.9 µM and the GI50 (HS 578T breast) was 2210 nM. The TGI (HS 578T breast) was 9.29 µM, the GI50 (HT29 colon) was 10.9 µM and the TGI (HT29 colon) was > 42.7 µM. For the same molecule, the GI50 (IGROV1 ovarian) was 619 nM, the TGI (IGROV1 ovarian) was 23.2 µM and the GI50 (K-562 leukemia) was 12.8 µM. For the same molecule, the TGI (K-562 leukemia) was > 100 µM, the GI50 (KM12 colon) was 15.2 µM and the TGI (KM12 colon) was 38.5 µM. The GI50 (LOX IMVI melanoma) was 13 µM, the TGI (LOX IMVI melanoma) was 26.1 µM and the GI50 (M14 melanoma) was 18.2 µM. For the same molecule, the TGI (M14 melanoma) was 38.8 µM, the GI50 (MALME-3M melanoma) was 6.19 µM and the TGI (MALME-3M melanoma) was 48.5 µM. It also gave a GI50 (MCF7 breast) of 271 nM, a TGI (MCF7 breast) of 17.8 µM and a GI50 (MDA-MB-231 breast) of 12.1 µM. For the same molecule, the TGI (MDA-MB-231 breast) was 30.8 µM, the GI50 (MDA-MB-435) was 6.06 µM and the TGI (MDA-MB-435) was 29.6 µM. It also gave a GI50 (MOLT-4 leukemia) of 12.5 µM, a TGI (MOLT-4 leukemia) of 58.6 µM and a TGI (NCI-H226 lung) of 23.6 nM. The GI50 (NCI-H23 lung) was 14.8 µM, the TGI (NCI-H23 lung) was 35.4 µM and the GI50 (NCI-H460 lung) was 443 nM. For the same molecule, the TGI (NCI-H460 lung) was 12.2 µM, the GI50 (NCI-H522 lung) was 26.9 µM and the TGI (NCI-H522 lung) was > 68.4 µM. It also gave a GI50 (NCI/ADR-RES ovarian) of 18 µM, a TGI (NCI/ADR-RES ovarian) of 38.5 µM and a GI50 (OVCAR-3 ovarian) of 1730 nM. It also gave a TGI (OVCAR-3 ovarian) of 18.2 µM, a GI50 (OVCAR-4 ovarian) of 1430 nM and a TGI (OVCAR-4 ovarian) of 9.92 µM. For the same molecule, the GI50 (OVCAR-5 ovarian) was 58.1 nM, the TGI (OVCAR-5 ovarian) was 570 nM and the GI50 (OVCAR-8 ovarian) was 20.5 µM. For the same molecule, the TGI (OVCAR-8 ovarian) was 56.4 µM, the GI50 (PC-3 prostate) was 18.3 µM and the TGI (PC-3 prostate) was > 59.4 µM. The GI50 (RPMI-8226 leukemia) was 35.4 µM, the TGI (RPMI-8226 leukemia) was > 100 µM and the GI50 (RXF 393 renal) was 16.5 µM. For the same molecule, the TGI (RXF 393 renal) was 39 µM, the GI50 (SF-268 CNS) was 16.3 µM and the TGI (SF-268 CNS) was 40.6 µM. The GI50 (SF-295 CNS) was 4.64 µM, the TGI (SF-295 CNS) was 24.2 µM and the GI50 (SF-539 CNS) was 14.2 µM. The TGI (SF-539 CNS) was 27.4 µM, the GI50 (SK-MEL-2 melanoma) was 31.3 µM and the TGI (SK-MEL-2 melanoma) was > 100 µM. For the same molecule, the GI50 (SK-MEL-28 melanoma) was 17.7 µM, the TGI (SK-MEL-28 melanoma) was 47.2 µM and the GI50 (SK-MEL-5 melanoma) was 7.26 µM. For the same molecule, the TGI (SK-MEL-5 melanoma) was 20.2 µM, the GI50 (SK-OV-3 ovarian) was 36.7 µM and the TGI (SK-OV-3 ovarian) was > 62.1 µM. For the same molecule, the GI50 (SN12C renal) was 11.8 µM, the TGI (SN12C renal) was 29.9 µM and the GI50 (SNB-19 CNS) was 35.2 µM. The TGI (SNB-19 CNS) was > 75.6 µM, the GI50 (SNB-75 CNS) was 18.8 µM and the TGI (SNB-75 CNS) was 46.1 µM. The GI50 (SW-620 colon) was 9.06 µM, the TGI (SW-620 colon) was 25.1 µM and the GI50 (T-47D breast) was 4.84 µM. For the same molecule, the GI50 (TK-10 renal) was 216 nM, the TGI (TK-10 renal) was 1820 nM and the GI50 (U251 CNS) was 4.85 µM. The TGI (U251 CNS) was 23.5 µM, the GI50 (UACC-257 melanoma) was 3.11 µM and the TGI (UACC-257 melanoma) was > 21.4 µM. For the same molecule, the GI50 (UACC-62 melanoma) was 219 nM, the TGI (UACC-62 melanoma) was 1510 nM and the GI50 (UO-31 renal) was 20.4 µM. For the same molecule, the TGI (UO-31 renal) was > 60.6 µM.

`COc1ccc(S(=O)Cc2cc(OC)c(OC)c(OC)c2)cc1` (configuration not stated) was tested, and the TGI (786-0 renal) was > 100 µM, the TGI (A549 NSCLC) was > 100 µM and the TGI (ACHN renal) was > 100 µM. For the same molecule, the TGI (BT-549 breast) was > 100 µM, the TGI (CAKI-1 renal) was > 100 µM and the TGI (CCRF-CEM leukemia) was > 100 µM. The TGI (COLO 205 colon) was > 100 µM, the TGI (DU-145 prostate) was > 100 µM and the TGI (EKVX NSCLC) was > 100 µM. For the same molecule, the TGI (HCC-2998 colon) was > 100 µM, the TGI (HCT-116 colon) was > 100 µM and the TGI (HCT-15 colon) was > 100 µM. For the same molecule, the TGI (HOP-62 NSCLC) was > 100 µM, the TGI (HS 578T breast) was > 100 µM and the TGI (HT29 colon) was > 100 µM. For the same molecule, the TGI (IGROV1 ovarian) was > 100 µM, the TGI (K-562 leukemia) was > 100 µM and the TGI (KM12 colon) was > 100 µM. The TGI (LOX IMVI melanoma) was > 100 µM, the TGI (M14 melanoma) was > 100 µM and the TGI (MALME-3M melanoma) was > 100 µM. For the same molecule, the TGI (MCF7 breast) was > 100 µM, the TGI (MDA-MB-231 breast) was > 100 µM and the TGI (MDA-MB-435) was 35.7 µM. The TGI (MOLT-4 leukemia) was > 100 µM, the TGI (NCI-H226 lung) was > 100000 nM and the TGI (NCI-H23 lung) was > 100 µM. For the same molecule, the TGI (NCI-H460 lung) was > 100 µM, the TGI (NCI-H522 lung) was > 100 µM and the TGI (NCI/ADR-RES ovarian) was > 100 µM. The TGI (OVCAR-3 ovarian) was > 100 µM, the TGI (OVCAR-4 ovarian) was > 100 µM and the TGI (OVCAR-5 ovarian) was > 100000 nM. For the same molecule, the TGI (OVCAR-8 ovarian) was > 100 µM, the TGI (PC-3 prostate) was > 100 µM and the TGI (RPMI-8226 leukemia) was > 100 µM. The TGI (RXF 393 renal) was > 100 µM, the TGI (SF-268 CNS) was > 100 µM and the TGI (SF-295 CNS) was > 100 µM. For the same molecule, the TGI (SF-539 CNS) was > 100 µM, the TGI (SK-MEL-2 melanoma) was > 100 µM and the TGI (SK-MEL-28 melanoma) was > 100 µM. For the same molecule, the TGI (SK-MEL-5 melanoma) was > 100 µM, the TGI (SK-OV-3 ovarian) was > 100 µM and the TGI (SN12C renal) was > 100 µM. For the same molecule, the TGI (SNB-19 CNS) was > 100 µM, the TGI (SNB-75 CNS) was > 100 µM and the TGI (SR leukemia) was > 100 µM. The TGI (SW-620 colon) was > 100 µM, the TGI (T-47D breast) was > 100 µM and the TGI (TK-10 renal) was > 100000 nM. The TGI (U251 CNS) was > 100 µM, the TGI (UACC-257 melanoma) was > 100 µM and the TGI (UACC-62 melanoma) was > 100000 nM. For the same molecule, the TGI (UO-31 renal) was > 100 µM.
